Measured values: US20170334899A1, “AMINO-SUBSTITUTED ISOTHIAZOLES” (Bayer Pharma Aktiengesellschaft, priority 2014, published 2017)

Columns and labels:
Assay type in all cases: cell-based
[1] = tested on: human cervical tumor cell line HeLa (ATCC CCL-2); test: SAC-Formation - Nocodazole-Induced Assay; details: Homo sapiens, HeLa, 24 h, HeLa cells, nocodazole 0.1 μg/ml together with test compound, decrease of mitotic cells (phospho-histone H3 Ser10)
Description: (§1) The spindle assembly checkpoint assures the proper segregation of chromosomes during mitosis. Upon entry into mitosis, chromosomes begin to condensate which is accompanied by the phosphorylation of histone H3 on serine 10. Dephosphorylation of histone H3 on serine 10 begins in anaphase and ends at early telophase. Accordingly, phosphorylation of histone H3 on serine 10 can be utilized as a marker of cells in mitosis. Nocodazole is a microtubule destabilizing substance. Paclitaxel is a microtubule stabilizing compound. Thus, nocodazole as well as paclitaxel interfere with microtubule dynamics and mobilize the spindle assembly checkpoint. […] The mitotic breakthrough can be detected by the decrease of cells with phosphorylation of histone H3 on serine 10. This decline is used as a marker to determine the capability of compounds of the present invention to induce a mitotic breakthrough. The typical morphological alteration of nuclei with a prematurely completed mitosis after SAC-inhibition can be monitored via image analysis routines supporting those findings.
(§2) The nocodazole and paclitaxel variations were used to focus on compounds that are capable of inhibiting a SAC induced by both microtubule destabilization as well as microtubule stabilization. When SAC inducing agents and compounds are given simultaneously inhibitors that effectively block the SAC during formation or abrogation are identified. When cells are incubated with a SAC inducing agent and the SAC interfering compound is given after a defined time, inhibitors are identified that effectively block SAC abrogation.
(§3) Cultivated cells of the human cervical tumor cell line HeLa (ATCC CCL-2) were plated at a density of 1000 cells/well in a 1536-well microtiter plate in 2 μl PAA Ham's F12 Medium supplemented with 1% (v/v) glutamine, 1% (v/v) penicillin, 1% (v/v) streptomycin and 10% (v/v) fetal calf serum. After incubation overnight at 37° C., 10 μl/well nocodazole at a final concentration of 0.1 μg/ml were added to cells. Test compounds solubilized in dimethyl sulfoxide (DMSO) were added at various concentrations (0 μM, as well as in the range of 0.005 μM-20 μM; the final concentration of the solvent DMSO was 0.5% (v/v)). Cells were incubated for 24 h at 37° C. in the presence of test compounds in combination with nocodazole. Thereafter, cells were fixed in 4% (v/v) paraformaldehyde in phosphate buffered saline (PBS) at 4° C. overnight then permeabilized in 0.1% (v/v) Triton X™ 100 in PBS at room temperature for 20 min and blocked in 0.5% (v/v) bovine serum albumin (BSA) in PBS at room temperature for 15 min. After washing with PBS, 5 μl/well antibody solution (anti-phospho-histone H3 clone 3H10, FITC; Millipore, Cat#16-222; 1:1000 dilution) was added to cells, which were incubated for 2 h at room temperature. Afterwards, cells were washed with PBS and 5 μl/well solution of HOECHST 33342 dye (5 μg/ml) was added to cells and cells were incubated 15 min at room temperature in the dark. Cells were washed twice with PBS then covered with PBS and stored at 4° C. until analysis. Images were acquired with a PERKIN ELMER OPERA™ High-Content Analysis reader. Images were analyzed with image analysis software MetaXpress™ from Molecular devices utilizing the Mitotic Index application module. In this assay both labels HOECHST 33342 and phosphorylated Histone H3 on serine 10 were measured. HOECHST 33342 labels the DNA and is used to count the cell number. The staining of phosphorylated Histone H3 on serine 10 determines the number of mitotic cells. […] Otherwise cells were arrested at G2/M phase of the cell cycle progression. The raw assay data were further analyzed by four-parametric hill equation using Genedata's Assay Analyzer and Condoseo software.

[2] = tested on: human cervical tumor cell line HeLa (ATCC CCL-2); test: SAC-Formation - Paclitaxel-Induced Assay; details: Homo sapiens, HeLa, 24 h, HeLa cells, paclitaxel 0.05 μM, test range 0.005 μM-20 μM, read-out: IC50 [mol/l] SAC-Formation - Paclitaxel-Induced Assay
Description: as §1, §2
Cultivated cells of the human cervical tumor cell line HeLa (ATCC CCL-2) were plated at a density of 1000 cells/well in a 1536-well microtiter plate in 2 μl PAA
as §3, with “Ham's” for “Cultivated cells of the human cervical tumor cell line HeLa (ATCC CCL-2) were plated at a density of 1000 cells/well in a 1536-well microtiter plate in 2 μl PAA Ham's”, “paclitaxel” for “nocodazole”, “0.05 μM” for “0.1 μg/ml”, “μM -20” for “μM-20”, “paclitaxel.” for “nocodazole.”

[3] = tested on: HeLa; test: Proliferation assay (crystal violet), HeLa; details: Homo sapiens, HeLa, 96 h, HeLa cells; 4 days incubation; crystal violet staining; read-out: IC50 inhibition of proliferation, HeLa
Procedure: Cultivated tumor cells (cells were ordered from ATCC, except HeLa-MaTu and HeLa-MaTu-ADR, which were ordered from EPO-GmbH, Berlin) were plated at a density of 1000 to 5000 cells/well, depending on the growth rate of the respective cell line, in a 96-well multititer plate in 200 μL of their respective growth medium supplemented 10% fetal calf serum. After 24 hours, the cells of one plate (zero-point plate) were stained with crystal violet (see below), while the medium of the other plates was replaced by fresh culture medium (200 μl), to which the test substances were added in various concentrations (0 μM, as well as in the range of 0.001-10 μM; the final concentration of the solvent dimethyl sulfoxide was 0.5%). The cells were incubated for 4 days in the presence of test substances. Cell proliferation was determined by staining the cells with crystal violet: the cells were fixed by adding 20 μl/measuring point of an 11% glutaric aldehyde solution for 15 minutes at room temperature. After three washing cycles of the fixed cells with water, the plates were dried at room temperature. The cells were stained by adding 100 μl/measuring point of a 0.1% crystal violet solution (pH 3.0). After three washing cycles of the stained cells with water, the plates were dried at room temperature. The dye was dissolved by adding 100 μl/measuring point of a 10% acetic acid solution. Absorbtion was determined by photometry at a wavelength of 595 nm. The change of cell number, in percent, was calculated by normalization of the measured values to the aborbtion values of the zero-point plate (=0%) and the absorbtion of the untreated (0 μm) cells (=100%). The IC50 values were determined by means of a 4 parameter fit.

| SMILES | IC50 [1] [nM] | IC50 [2] [µM] | IC50 [3] [µM] |
| --- | --- | --- | --- |
| Cc1nsc(Nc2cnc3ccccc3n2)c1C(=O)Nc1cccc(C(=O)NCCN2CCOCC2)c1 [Example 71, 3-Methyl-N-(3-{[2-(morpholin-4-yl)ethyl]carbamoyl}-phenyl)-5-(quinoxalin-2-ylamino)-1,2-thiazole-4-carboxamide] | 1400 | 20 | 10 |
| Cc1nsc(Nc2cnc3ccccc3n2)c1C(=O)Nc1cccc(C(=O)NCCN2CCCC2)c1 [Example 72, 3-Methyl-N-(3-{[2-(pyrrolidin-1-yl)ethyl]carbamoyl}phenyl)-5-(quinoxalin-2-ylamino)-1,2-thiazole-4-carboxamide] | 52 | 10 | 10 |
| C#CCNC(=O)c1cccc(NC(=O)c2c(C)nsc2Nc2cnc3ccccc3n2)c1 [Example 73, 3-Methyl-N-[3-(prop-2-yn-1-ylcarbamoyl)phenyl]-5-(quinoxalin-2-ylamino)-1,2-thiazole-4-carboxamide] | 250 | 5.3 | 9.4 |
| COC(=O)CCNC(=O)c1cccc(NC(=O)c2c(C)nsc2Nc2cnc3ccccc3n2)c1 [Example 74, Methyl N-[3-({[3-methyl-5-(quinoxalin-2-ylamino)-1,2-thiazol-4-yl]carbonyl}amino)benzoyl]-β-alaninate] | 1300 | 5.3 | 10 |
| Cc1nsc(Nc2cnc3ccccc3n2)c1C(=O)Nc1cccc(C(=O)NCCN(C)C)c1 [Example 75, N-(3-{[2-(dimethylamino)ethyl]carbamoyl}phenyl)-3-methyl-5-(quinoxalin-2-ylamino)-1,2-thiazole-4-carboxamide] | 15 | 10 | 10 |
| COC(=O)CN(C)C(=O)c1cccc(NC(=O)c2c(C)nsc2Nc2cnc3ccccc3n2)c1 [Example 76, Methyl N-methyl-N-[3-({[3-methyl-5-(quinoxalin-2-ylamino)-1,2-thiazol-4-yl]carbonyl}amino)benzoyl]-glycinate] | 5000 | 18 | 10 |
| COc1cc(NC(=O)c2cccc(NC(=O)c3c(C)nsc3Nc3cnc4ccccc4n3)c2)cc(OC)c1OC [Example 77, 3-Methyl-5-(quinoxalin-2-ylamino)-N-{3-[(3,4,5-trimethoxy-phenyl)carbamoyl]phenyl}-1,2-thiazole-4-carboxamide] | 2200 | 10 | 10 |
| Cc1nsc(Nc2cnc3ccccc3n2)c1C(=O)Nc1cccc(C(=O)N2CCN(c3ccccc3F)CC2)c1 [Example 78, N-(3-{[4-(2-Fluorophenyl)piperazin-1-yl]carbonyl}phenyl)-3-methyl-5-(quinoxalin-2-ylamino)-1,2-thiazole-4-carboxamide] | 470 | 2 | 7 |
| Cc1nsc(Nc2cnc3ccccc3n2)c1C(=O)Nc1cccc(C(=O)N2CCN(c3cnccn3)CC2)c1 [Example 79, 3-Methyl-N-(3-{[4-(pyrazin-2-yl)piperazin-1-yl]carbonyl}-phenyl)-5-(quinoxalin-2-ylamino)-1,2-thiazole-4-carboxamide] | 900 | 3.7 | 10 |
| Cc1nsc(Nc2cnc3ccccc3n2)c1C(=O)Nc1cccc(C(=O)N2CCN(c3ccccc3C#N)CC2)c1 [Example 80, N-(3-{[4-(2-Cyanophenyl)piperazin-1-yl]carbonyl}phenyl)-3-methyl-5-(quinoxalin-2-ylamino)-1,2-thiazole-4-carboxamide] | 1800 | 3.5 | 8.3 |
| Cc1nsc(Nc2cnc3ccccc3n2)c1C(=O)Nc1cccc(C(=O)NCCCN2CCCC2)c1 [Example 81, 3-Methyl-N-(3-{[3-(pyrrolidin-1-yl)propyl]carbamoyl}-phenyl)-5-(quinoxalin-2-ylamino)-1,2-thiazole-4-carboxamide] | 10000 | 11 | 10 |
| Cc1nsc(Nc2cnc3ccccc3n2)c1C(=O)Nc1cccc(C(=O)N(C)CCc2ccncc2)c1 [Example 82, 3-Methyl-N-(3-{methyl[2-(pyridin-4-yl)ethyl]carbamoyl}-phenyl)-5-(quinoxalin-2-ylamino)-1,2-thiazole-4-carboxamide] | 3700 | 14 | 10 |
| Cc1nsc(Nc2cnc3ccccc3n2)c1C(=O)Nc1cccc(C(=O)N2CCCN(C)CC2)c1 [Example 83, 3-Methyl-N-{3-[(4-methyl-1,4-diazepan-1-yl)carbonyl]-phenyl}-5-(quinoxalin-2-ylamino)-1,2-thiazole-4-carboxamide] | 50 | 0.94 | 10 |
